Experimental data from paper PMC11617484, “A Small Molecule Agonist of Krüppel-Like Factor 15 in Proteinuric Kidney Disease” (Journal of the American Society of Nephrology : JASN, 2024).
pIC50: −log10 of the molar value.

Target: T1, inhibitor of nuclear factor kappa-B kinase subunit beta (IKKβ) (Homo sapiens, UniProt O14920)
T1 construct: gene IKBKB
T1 sequence (O14920 1-756): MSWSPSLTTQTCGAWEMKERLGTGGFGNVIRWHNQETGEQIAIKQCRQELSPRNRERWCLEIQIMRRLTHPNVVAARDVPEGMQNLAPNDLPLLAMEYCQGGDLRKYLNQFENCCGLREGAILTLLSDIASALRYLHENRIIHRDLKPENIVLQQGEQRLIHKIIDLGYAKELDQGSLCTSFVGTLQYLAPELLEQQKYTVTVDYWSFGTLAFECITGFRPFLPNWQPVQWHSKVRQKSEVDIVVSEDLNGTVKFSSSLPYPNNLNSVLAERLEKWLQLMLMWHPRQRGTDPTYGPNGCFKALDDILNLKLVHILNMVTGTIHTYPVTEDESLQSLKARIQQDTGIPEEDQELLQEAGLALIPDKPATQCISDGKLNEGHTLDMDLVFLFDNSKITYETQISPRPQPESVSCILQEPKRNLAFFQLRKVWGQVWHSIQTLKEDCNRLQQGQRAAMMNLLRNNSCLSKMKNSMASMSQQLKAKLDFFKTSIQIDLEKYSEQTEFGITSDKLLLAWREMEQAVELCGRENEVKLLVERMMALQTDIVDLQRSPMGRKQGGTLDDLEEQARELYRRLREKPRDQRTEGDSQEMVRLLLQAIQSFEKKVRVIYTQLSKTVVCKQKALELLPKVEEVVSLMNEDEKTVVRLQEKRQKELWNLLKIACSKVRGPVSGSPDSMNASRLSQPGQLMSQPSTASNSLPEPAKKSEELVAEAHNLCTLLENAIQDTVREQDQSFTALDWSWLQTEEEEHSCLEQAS
Assay: IKKβ kinase activity assay (dose response, ATP dependence, M96V gatekeeper resistance); supported by cellular thermal shift assay in human podocytes
Type: biochemical

- pIC50: 6.79
Structure (SMILES): CSc1ccc(NC(=O)Nc2ccc(C)nc2)cc1 [BT503]
